In patent US20170000702A1, “PERSONAL CARE COMPOSITIONS COMPRISING A SENSATE” (The Gillette Park, priority 2015, published 2017):
Read-outs that look alike come from different tables or passages of the source.

Experiments:
[1] = biological target: T1, human TRPA1 (Homo sapiens, UniProt O75762); test: Pre-Incubation Test Method, TRPA1 (FLIPR intracellular calcium, AITC activator); type: cell-based
T1 construct: expressed in transfected cells; host or cells: HEK-293
Procedure: (§1) The Pre-Incubation Test and Direct Addition Test Methods, as defined herein, can be conducted on either TRPV1 or TRPA1 receptors.
(§2) Pre-Incubation Test Method: First, the intracellular calcium ion (Ca^+2) levels in TRPV1 and TRPA1 receptors is measured. […] Cells are detached with addition of 10 ml of PBS (phosphate buffered saline) by hand shaking gently. Cells are transferred to a 50 ml tube and centrifuged at 850 rpm for 3 minutes to remove PBS. After centrifugation, a pellet of cells is formed in the bottom of the tube separating them from the supernatant solution. […] Fluo-4 is a fluorescent dye used for quantifying cellular Ca^2+ concentrations in the 100 nM to 1 microM range. At the end of the 30 minutes, 45 ml of assay buffer [1× HBSS (Hank's Balanced Salt Solution), 20 mM HEPES (4-(2-Hydroxyethyl)-1-piperazineethanesulfonic acid)] is added to wash cells and the resulting combination is then centrifuged at 850 rpm for 3 minutes to remove excess buffer and Fluo-4 AM calcium indicator.
(§3) The pellet cells are re-suspended in 10 ml assay buffer and 90 μl aliquots (˜50,000 cells) per well delivered to a 96-well assay plate containing 10 μl of test compounds (1 mM in assay buffer, final concentration 100 μM) or buffer control and incubated at room temperature for 30 minutes. […] The FLIPR assay is an accepted method for detecting changes in intracellular calcium concentration. Then 20 μl of the activators [1.8 μM Capsaicin (final concentration 300 nM) for TRPV1 or 300 μM AITC (final concentration 50 μM) for TRPA1 is added by FLIPR automatically and fluorescence recorded immediately.

[2] = In use irritation Test 2 (single variable shave test with panelists); type: in vivo; details: control 5.60
Procedure: • In use irritation Test 2: Five samples are produced with the same blank testing formulation as in Test 1, above. Samples are tested with panelists in a single variable shave test with only the addition and level of sensate being varied.

[3] = biological target: T2, human TRPV1 (Homo sapiens, UniProt Q8NER1); test: Pre-Incubation Test Method, TRPV1 (FLIPR intracellular calcium, capsaicin activator); type: cell-based
T2 construct: expressed in transfected cells; host or cells: HEK-293
Procedure: as §1, §2, §3

[4] = biological target: T1, human TRPA1; test: Direct Addition Test Method, TRPA1 (FLIPR intracellular calcium); type: cell-based
Procedure: as §1, §2, §3
(§4) Direct Addition Test Method (for determining the direct effect of test compounds on TRPV1 and TRPA1): All procedures are same as the pre-incubation test except 10 μl assay buffer instead of 10 μl test compounds in the 96-well assay plates. The fluorescence is measured immediately after addition of 20 μl of 600 μM each compound (final concentration 100 μM). The 20 μl of activator (capsaicin or AITC) is as the positive control. The percentage of up-regulation or down-regulation is calculated based on the fluorescence measurement.

[5] = biological target: T2, human TRPV1; test: Direct Addition Test Method, TRPV1 (FLIPR intracellular calcium); type: cell-based
Procedure: as §1, §2, §3, §4

[6] = In use irritation Test 1 (single variable shave test with panelists); type: in vivo; details: control 6.3
Procedure: 10. In Use Irritation Data: • In use irritation Test 1: Five samples are produced with the following formulation. Samples are tested with panelists in a single variable shave test with only the addition and level of sensate being varied. Respondents provide average irritation ratings summarized below. • Testing formula: […]

[7] = TRPA1, HEK-293 cells, test compound final concentration 100 μM, 30 minutes pre-incubation, activator AITC 50 μM
[8] = TRPV1, HEK-293 cells, test compound final concentration 100 μM, 30 minutes pre-incubation, activator Capsaicin 300 nM
[9] = TRPA1, HEK-293 cells, compound final concentration 100 μM, no pre-incubation, AITC as positive control
[10] = TRPV1, HEK-293 cells, compound final concentration 100 μM, no pre-incubation, capsaicin as positive control
[11] = sensate added to control formula at 0.2%

T1 sequence (O75762 whole entry): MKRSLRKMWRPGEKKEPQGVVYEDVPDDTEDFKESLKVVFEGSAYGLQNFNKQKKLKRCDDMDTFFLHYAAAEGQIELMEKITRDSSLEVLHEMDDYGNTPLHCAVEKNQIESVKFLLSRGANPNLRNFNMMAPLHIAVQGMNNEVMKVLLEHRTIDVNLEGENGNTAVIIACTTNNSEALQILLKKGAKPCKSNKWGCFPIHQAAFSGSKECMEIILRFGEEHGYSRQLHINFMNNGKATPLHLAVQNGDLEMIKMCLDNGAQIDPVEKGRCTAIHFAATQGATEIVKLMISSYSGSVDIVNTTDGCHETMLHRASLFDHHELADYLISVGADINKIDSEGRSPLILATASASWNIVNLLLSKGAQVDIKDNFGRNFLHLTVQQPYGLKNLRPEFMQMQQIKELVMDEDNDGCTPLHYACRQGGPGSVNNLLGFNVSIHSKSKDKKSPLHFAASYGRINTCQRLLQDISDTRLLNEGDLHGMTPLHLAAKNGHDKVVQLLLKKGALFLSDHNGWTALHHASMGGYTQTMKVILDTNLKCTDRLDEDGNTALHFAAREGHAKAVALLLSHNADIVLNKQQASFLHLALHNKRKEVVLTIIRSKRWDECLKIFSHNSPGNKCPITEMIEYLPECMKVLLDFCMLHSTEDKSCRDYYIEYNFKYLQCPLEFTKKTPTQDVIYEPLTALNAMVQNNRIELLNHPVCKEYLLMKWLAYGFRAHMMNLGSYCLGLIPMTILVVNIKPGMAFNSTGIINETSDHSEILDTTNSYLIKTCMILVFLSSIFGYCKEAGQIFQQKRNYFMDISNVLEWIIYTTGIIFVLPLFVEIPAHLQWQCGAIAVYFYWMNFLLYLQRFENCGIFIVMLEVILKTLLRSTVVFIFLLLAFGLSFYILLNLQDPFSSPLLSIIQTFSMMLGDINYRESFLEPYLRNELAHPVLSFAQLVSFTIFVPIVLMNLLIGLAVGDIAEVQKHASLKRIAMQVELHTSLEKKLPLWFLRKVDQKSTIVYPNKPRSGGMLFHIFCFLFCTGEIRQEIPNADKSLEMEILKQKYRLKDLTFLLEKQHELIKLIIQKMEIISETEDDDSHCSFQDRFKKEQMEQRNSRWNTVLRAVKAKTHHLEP
T2 sequence (Q8NER1 whole entry): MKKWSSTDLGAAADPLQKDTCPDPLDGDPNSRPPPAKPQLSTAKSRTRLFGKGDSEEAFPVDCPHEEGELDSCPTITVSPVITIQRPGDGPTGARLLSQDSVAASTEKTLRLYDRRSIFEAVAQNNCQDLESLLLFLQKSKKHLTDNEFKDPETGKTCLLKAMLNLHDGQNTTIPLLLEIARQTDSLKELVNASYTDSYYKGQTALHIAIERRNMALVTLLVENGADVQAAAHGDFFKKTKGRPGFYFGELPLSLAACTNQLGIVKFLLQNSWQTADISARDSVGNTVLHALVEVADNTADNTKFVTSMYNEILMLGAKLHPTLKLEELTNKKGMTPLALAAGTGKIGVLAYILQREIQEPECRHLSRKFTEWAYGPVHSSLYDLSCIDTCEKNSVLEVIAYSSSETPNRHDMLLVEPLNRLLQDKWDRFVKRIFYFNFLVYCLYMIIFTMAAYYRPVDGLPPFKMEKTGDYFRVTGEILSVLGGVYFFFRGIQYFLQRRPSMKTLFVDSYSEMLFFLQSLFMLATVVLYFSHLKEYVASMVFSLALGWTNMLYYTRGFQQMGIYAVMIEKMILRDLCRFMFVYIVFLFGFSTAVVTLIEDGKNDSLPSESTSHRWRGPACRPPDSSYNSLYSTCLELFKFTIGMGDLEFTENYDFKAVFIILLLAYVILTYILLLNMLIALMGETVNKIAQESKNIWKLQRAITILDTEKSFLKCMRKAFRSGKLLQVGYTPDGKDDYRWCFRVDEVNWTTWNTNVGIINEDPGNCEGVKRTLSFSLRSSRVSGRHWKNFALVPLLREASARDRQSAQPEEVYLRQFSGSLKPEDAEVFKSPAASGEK

| SMILES | Pre-incubation % Regulation [1, 7] [%] | Pre-incubation % Regulation [3, 8] [%] | Direct Addition % Regulation [4, 9] [%] | Direct Addition % Regulation [5, 10] [%] | further results |
| --- | --- | --- | --- | --- | --- |
| C=C1CCC(C)C(C)(C)C1/C=C/C(C)=O (stereo not shown) | 23.55 | 22.16 | 4.96 | 5.24 | Avg Irritation Score ([2]; sensate at 0.1% in control formulation): 5.40 |
| Cc1cc(O)ccc1Cl [4-chloro-3-methylphenol] | −0.43 | 47.49 | 319.54 | 292.92 | Avg Irritation Score [6, 11]: 4.3 |
| CC(=O)CCC=C(C)C [6-Methyl-5-hepten-2-one, 6-methyl-5-hepten-2-one] |  |  |  |  | Avg Irritation Score ([6]; sensate added to control formula at 0.15%): 6.0 |
| OCc1ccccc1 [Benzyl Alcohol, benzyl alcohol] | 14.61 | 51.18 | 21.39 | −2.09 | Avg Irritation Score ([6]; sensate added to control formula at 1%): 4.8 |
| Cc1cc(O)cc(C)c1Cl [Chloroxylenol, chloroxylenol] | −0.08 | 37.52 | 381.06 | 326.69 | Avg Irritation Score [6, 11]: 5.2 |
| CC(C)C(=O)OCCOc1ccccc1 [Phenoxyethyl Isobutyrate, phenoxyethyl isobutyrate] | 36.8 | 41.34 | −7.84 | −6.84 | Avg Irritation Score ([2]; sensate at 0.13% in control formulation): 4.45 |
| CC(=O)[O][Zn][O]C(C)=O [Zinc Acetate, zinc acetate] |  |  |  |  | Pre-incubation % Regulation [1]: 21.67%; Avg Irritation Score ([2]; sensate at 0.03% in control formulation): 4.55; Pre-incubation % Regulation [3]: 35.2%; Direct Addition % Regulation [4]: −0.66%; Direct Addition % Regulation [5]: 0.88% |
